In ChEMBL document CHEMBL1667828, “Synthesis and evaluation of new iRGD peptide analogs for tumor optical imaging” (Bioorg Med Chem Lett, 2011):
Where a SMILES comes first, the peptide text is derived from it. Bridges are numbered along the chain shown (N, C = ends). The star is where a group is joined. DOTA = O=C(O)CN1CCN(CC(=O)O)CCN(CC(=O)*)CCN(CC(=O)O)CC1

How the values were obtained:
Format in all cases: ADME, organism-based, Neoplasm
[1] = Drug level in tumor of human MDA-MB-435 cell-xenograft athymic nude mouse model at 10 uM, iv after 10 mins by optical imaging analysis; conditions: in vivo
[2] = Drug level in tumor of human MDA-MB-435 cell-xenograft athymic nude mouse model at 10 uM, iv by PET analysis; conditions: athymic nude mouse (human MDA-MB-435 xenograft), in vivo
[3] = Drug level in tumor of human MDA-MB-435 cell-xenograft athymic nude mouse model at 10 uM, iv after 4 hrs by optical imaging analysis; conditions: in vivo

SMILES	Drug uptake [1]	Drug uptake [2]	Drug uptake [3]
CC(=O)N[C@H](CSC1CC(=O)N(CCNC(=O)CCCCC[N+]2=C(/C=C/C3=C(Oc4ccc(S(=O)(=O)[O-])cc4)C(=C/C=C4/N(CCCCS(=O)(=O)[O-])c5ccc(S(=O)(=O)[O-])cc5C4(C)C)/CCC3)C(C)(C)c3cc(S(=O)(=O)[O-])ccc32)C1=O)C(=O)N[C@H]1CSSC[C@@H](C(N)=O)NC(=O)[C@H](CC(=O)O)NC(=O)[C@@H]2CCCN2C(=O)CNC(=O)[C@H](CCCCN)NC(=O)[C@H](CC(=O)O)NC(=O)CNC(=O)[C@H](CCCNC(=N)N)NC1=O.[Na+].[Na+].[Na+] (stereo not given in full)	Active	Active	Active
CC1(C)C(/C=C/C2=C(Oc3ccc(S(=O)(=O)[O-])cc3)C(=C/C=C3/N(CCCCS(=O)(=O)[O-])c4ccc(S(=O)(=O)[O-])cc4C3(C)C)/CCC2)=[N+](CCCCCC(=O)NCCN2C(=O)CC(SC[C@@H](NC(=O)CN3CCN(CC(=O)O)CCN(CC(=O)O)CCN(CC(=O)O)CC3)C(=O)N[C@H]3CSSC[C@@H](C(N)=O)NC(=O)[C@H](CC(=O)O)NC(=O)[C@@H]4CCCN4C(=O)CNC(=O)[C@H](CCCCN)NC(=O)[C@H](CC(=O)O)NC(=O)CNC(=O)[C@H](CCCNC(=N)N)NC3=O)C2=O)c2ccc(S(=O)(=O)[O-])cc21.[Na+].[Na+].[Na+] (stereo not given in full)	Active	Active	Active
CC(=O)N[C@@H](CS)C(=O)N[C@H]1CSSC[C@@H](C(N)=O)NC(=O)[C@H](CC(=O)O)NC(=O)[C@@H]2CCCN2C(=O)CNC(=O)[C@H](CCCCN)NC(=O)[C@H](CC(=O)O)NC(=O)CNC(=O)[C@H](CCCNC(=N)N)NC1=O (Ac-CCRGDKGPDC-NH2; disulfide 2-10)		Active	Active
N=C(N)NCCC[C@@H]1NC(=O)[C@@H](NC(=O)[C@H](CS)NC(=O)CN2CCN(CC(=O)O)CCN(CC(=O)O)CCN(CC(=O)O)CC2)CSSC[C@@H](C(N)=O)NC(=O)[C@H](CC(=O)O)NC(=O)[C@@H]2CCCN2C(=O)CNC(=O)[C@H](CCCCN)NC(=O)[C@H](CC(=O)O)NC(=O)CNC1=O ({DOTA}-CCRGDKGPDC-NH2; disulfide 2-10)		Active	Active
